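Cells were grown in 96-well plates and exposed to each compound for 48 hours at five concentrations; endpoints were interpolated linearly between bracketing concentrations, or set to the highest concentration if not reached. At the GI50, growth is halved.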 The source made the active and inactive calls. Cut-off read from the data, not from the text of the source: active = GI50 up to about 1.1 µM and inactive = higher. Bounds are passed on as bounds.

What all share (experiment): NCI tumour cell line growth inhibition, 48 h
Test [1] concerns UACC-257.
The subject of test [2] is SR.
For test [3], the system named is OVCAR-4.
Test [4] deals with HT-29.
For test [5], the system named is HCT-116.
The test system of test [6] is HCT-15.
Test [7] has as its system OVCAR-8.
Test [8] deals with HL-60.
The test system of test [9] is K562.
The test system of test [10] is SK-MEL-28.
The test system of test [11] is RXF 393.
Test [12] has as its system TK-10.
In test [13] the test system is OVCAR-3.
The test system of test [14] is Malme-3M.
For test [15], the system named is A498.
The test system of test [16] is SK-OV-3.
For test [17], the system named is OVCAR-5.

Turning to `COc1ccc(-c2cc(O)c3cc4c(cc3n2)OCO4)cc1`, the GI50 in test [1] is > 100 µM (inactive); in test [2], > 100 µM (inactive); in [3] it was > 100 µM (inactive); in test [4] it was > 100 µM (inactive); in [5] it was > 100 µM (inactive); in test [6] it was above 100 µM. For the same molecule, the GI50 is > 100 µM (inactive) in test [7]; > 100 µM (inactive) in [8]; > 100 µM (inactive) in [9]; > 100 µM (inactive) in test [10]; 38.4 µM (inactive) in [11]; > 100 µM (inactive) in test [12]. The GI50 in [13], in test [14] and in test [15] was > 100 µM (inactive) throughout.
On to `COC(=O)C(Cc1nc2ccccc2nc1O)/C(=N\NC(C)(C)C)C(=O)Nc1c(C)cc(Br)cc1C` (stereo not drawn), for which the GI50 in test [1] was 33.9 µM (inactive); in [2], 20.5 µM (inactive); in [3], 34.8 µM (inactive); in [16], 50.5 µM (inactive); in test [4], 30.5 µM (inactive); in test [5], 18.6 µM (inactive). The GI50 is > 100 µM (inactive) in test [17]; 23.4 µM in test [6]; 21.9 µM (inactive) in test [7]; 29.4 µM (inactive) in test [9]; 20 µM (inactive) in [10]; > 10 µM (inactive) in test [13]. Moreover, the results for the GI50 in test [14] and in [15] were 27.6 µM (inactive) and 12.7 µM (inactive), respectively.
For the molecule `O=C1N=C2N=C(c3ccc(Cl)cc3)N(c3ccc(Cl)cc3)N2Sc2ccccc21`, the GI50 in [1], in test [3], in test [16], in test [4], in test [5] and in test [17] was > 100 µM (inactive) in each case. The GI50 is above 100 µM in test [6]; > 100 µM (inactive) in test [7]; > 100 µM (inactive) in test [8]; > 100 µM (inactive) in [9]; > 100 µM (inactive) in test [10]; 32.8 µM (inactive) in [11]. The GI50 in [12], in test [13], in test [14] and in test [15] was > 100 µM (inactive) in each case.
As for `CCC1=CCN(c2cc(C)ccn2)OC1c1ccccc1` (stereo not drawn), the GI50 was 33.3 µM (inactive) in [1]; 21.1 µM (inactive) in test [2]; 59.8 µM (inactive) in test [3]; 71.3 µM (inactive) in test [16]; 29.3 µM (inactive) in test [4]; 30.8 µM (inactive) in test [5]. The GI50 in test [17] was > 100 µM (inactive); in test [6] it was 21.8 µM; in [7], 53.1 µM (inactive); in test [8], 18.3 µM (inactive); in test [9] it was 47.4 µM (inactive); in test [10] it was 23.9 µM (inactive). Besides, the GI50 is 29.3 µM (inactive) in test [11], 65.6 µM (inactive) in test [13] and 26.5 µM (inactive) in test [14].
Consider `CC1(C2CCC3(C)C(C2)C3Sc2ccccc2)OCCO1` (stereo not drawn), for which the GI50 was 17.5 µM (inactive) in [1]; 31.3 µM (inactive) in test [3]; 33 µM (inactive) in [16]; 17.5 µM (inactive) in [4]; 15.5 µM (inactive) in test [5]; 20.5 µM (inactive) in test [17]. For the same molecule, the GI50 in test [6] is 31.9 µM; in [7], 31.8 µM (inactive); in test [8] it was 12.1 µM (inactive); in test [9], 17.1 µM (inactive); in test [10] it was 24.9 µM (inactive); in test [11] it was 15 µM (inactive). Moreover, the GI50 in test [12] is 56.6 µM (inactive); in test [13], 14.4 µM (inactive); in [14], 18.3 µM (inactive); in test [15], 18.8 µM (inactive).
As to `CCNC(=O)OCc1c(COC(=O)NCC)c(-c2ccc(Cl)c(Cl)c2)n2c1CCC2`, the GI50 in test [1] was 12.2 µM (inactive); in [2], 3.21 µM (inactive); in test [3], 15.2 µM (inactive); in test [4], 18.3 µM (inactive); in test [5] it was 9.4 µM (inactive); in test [17] it was 20.3 µM (inactive). Further, the GI50 in [6] was 13.6 µM; in [7], 12.6 µM (inactive); in test [8] it was 3.24 µM (inactive); in test [9], 8.61 µM (inactive); in test [10] it was 14.9 µM (inactive); in [12], 10.9 µM (inactive). Moreover, the GI50 was 17.6 µM (inactive) in [13] and 16.6 µM (inactive) in test [14].
As for `CC1OC(n2cc(F)c(=O)[nH]c2=O)C=CC1=O` (stereo not drawn), the GI50 was 17.9 µM (inactive) in [1]; 21.5 µM (inactive) in test [2]; 18.1 µM (inactive) in test [3]; 29 µM (inactive) in test [16]; 23 µM (inactive) in test [4]; 16.3 µM (inactive) in test [5]. Besides, the GI50 is 16 µM (inactive) in test [17]; 20.3 µM in [6]; 20.7 µM (inactive) in test [7]; 17.9 µM (inactive) in test [8]; 31 µM (inactive) in test [9]; 17.7 µM (inactive) in test [10]. In addition, the GI50 was 15.5 µM (inactive) in test [11]; 17 µM (inactive) in [12]; 16 µM (inactive) in test [13]; 18.7 µM (inactive) in test [14]; 16.7 µM (inactive) in [15].
Regarding `C=CCCOC(=O)CO[N+](=O)[O-]`, the GI50 in test [1], in test [2], in [3], in test [16], in test [4] and in test [5] was > 100 µM (inactive) throughout. Besides, the GI50 in [17] was > 100 µM (inactive); in test [6] it was above 100 µM; in [7] it was > 100 µM (inactive); in [8], 23.2 µM (inactive); in test [9], > 100 µM (inactive); in [10], > 100 µM (inactive). Also, the GI50 in [11], in test [12], in test [13] and in test [14] was > 100 µM (inactive) throughout.
`CSC1NC=Nc2c1sc(=S)n2-c1ccccc1` (stereo not drawn): the GI50 is > 100 µM (inactive) in test [1]; > 100 µM (inactive) in test [2]; 89.1 µM (inactive) in [3]; > 100 µM (inactive) in [16]; > 100 µM (inactive) in [4]; > 100 µM (inactive) in test [5]. Also, the GI50 in [17] is > 100 µM (inactive); in [6], above 100 µM; in test [7], > 100 µM (inactive); in [10], > 100 µM (inactive); in test [11], > 100 µM (inactive); in test [12] it was > 100 µM (inactive). Also, the GI50 in [13] is 54.1 µM (inactive); in test [14], > 100 µM (inactive); in test [15], > 100 µM (inactive).
Regarding `CO/N=C/c1cc(OC)c(OC)c(OC)c1`, the GI50 in test [1], in test [2], in [3], in [16], in test [4] and in test [5] was > 100 µM (inactive) in each case. For the same molecule, the GI50 in [17] is > 100 µM (inactive); in [6] it was above 100 µM; in test [7], > 100 µM (inactive); in test [8] it was > 100 µM (inactive); in [9], > 100 µM (inactive); in test [10], > 100 µM (inactive). In addition, the GI50 in test [12], in test [13], in test [14] and in test [15] was > 100 µM (inactive) throughout.
On to `CCOC(=O)[C@H](Cc1ccccc1)NC(=O)c1nc[nH]c1[N+](=O)[O-]`, for which the GI50 in test [1], in test [2], in test [3], in test [16], in test [4] and in [5] was > 100 µM (inactive) throughout. For the same molecule, the GI50 was above 100 µM in [6]; > 100 µM (inactive) in test [7]; > 100 µM (inactive) in [8]; > 100 µM (inactive) in test [9]; > 100 µM (inactive) in test [10]; > 100 µM (inactive) in [12]. Moreover, the GI50 in [13], in test [14] and in test [15] was > 100 µM (inactive) each time.
For `CC1CC2OC(=O)CC2C[C@@H]1O[Si](C)(C)C(C)(C)C` (stereo partly drawn), the GI50 is 61.8 µM (inactive) in test [1]; 61 µM (inactive) in test [3]; > 100 µM (inactive) in test [16]; 40.5 µM (inactive) in [4]; 38.5 µM (inactive) in test [5]; > 100 µM (inactive) in test [17]. The GI50 in [6] is 54.5 µM; in test [7] it was 81.5 µM (inactive); in [8], 20.6 µM (inactive); in [9], 36.1 µM (inactive); in test [12], > 100 µM (inactive); in test [13], 40.4 µM (inactive). Also, the GI50 in test [14] is 65.3 µM (inactive); in test [15], > 10 µM (inactive).
In the case of `C[C@@H]1C[C@H]2[C@@H]3CCC4=CC(=O)C=C[C@]4(C)[C@@]3(F)[C@@H](O)C[C@]2(C)[C@@]1(O)C(=O)CO` [DEXAMETHASONE], the GI50 in test [1] is > 100 µM (inactive); in [2], 49.3 µM (inactive); in [3], > 100 µM (inactive); in [16], > 100 µM (inactive); in test [4], > 100 µM (inactive); in [5], > 100 µM (inactive). The GI50 in test [17] is > 100 µM (inactive); in test [6], above 100 µM; in test [7] it was > 100 µM (inactive); in test [8], > 100 µM (inactive); in [9], > 100 µM (inactive); in test [10], > 100 µM (inactive). For the same molecule, the GI50 in test [12], in test [13] and in [14] was > 100 µM (inactive) throughout.

The values above are taken from ChEMBL document CHEMBL1201862, “PubChem BioAssay data set” (2004).
